Where two headings read alike, the source gives them in different places.
Tests used:
[1] = tested on: D122 murine lung carcinoma; assay: Cytotoxicity assay (MTS, CellTiter 96) in D122 cells; conditions: for IC50: Mus musculus
Protocol: (§1) CT26 is a murine colon carcinoma. DA-3 is a murine mammary adenocarcinoma. TRAMP C1 is a murine prostate adenocarcinoma. MCF7 is a human breast adenocarcinoma. M IA PaCa-2 is a human pancreatic carcinoma. D122 is a murine lung carcinoma. BCL1 is a murine B cell leukemia. All cell lines were purchased from ATCC (Rockville, Md., USA), except for DA3 and D122 which were kindly provided by Prof. Y. Keisari (Tel-Aviv University, Israel).
(§2) All cells (except for BCL1) were plated into 96-well microtiter plates (Corning) at a density of 2*10^3 cells per well and were allowed to adhere prior to treatment. BCL1 cells were seeded at a density of 20*10^4 cells per well. The cells were exposed to MJ, cytotoxic drugs, 2DG or their combinations at different concentrations for 24 hours. Cytotoxic drugs and 2DG were added 1 h prior to MJ addition.
(§3) Inhibition of cell proliferation was determined by the CellTiter 96 Aqueous Non-Radioactive Cell Proliferation Assay (Promega, Madison, Wis., USA). Upon completion of a given experiment, 20 μl of a mixture (20:1) of MTS (a tetrazolium compound, at a final concentration of 333 μg/ml)+phenazine methosulfate (at a final concentration of 25 μM) were added to each well of the 96-well plate for 1 h at 37° C. This allowed for the development of the reaction in which dehydrogenases reduce the MTS in metabolically active cells. […] Soluble MTS formazan product at wavelength 490 nm was measured with the CERES 900 HDi ELISA reader (Bio-Tek Instruments, Highland Park, Vt., USA). Optical density is directly proportional to the number of living cells in culture. Cytotoxicity (%) was calculated in the following way: [(absorbance of control cells−absorbance of drug-treated cells)/absorbance of control cells]×100.

[2] = tested on: DA-3 murine mammary adenocarcinoma; assay: Cytotoxicity assay (MTS, CellTiter 96) in DA-3 cells; conditions: for IC50: Mus musculus
Protocol: as §1
(§4) The cells were maintained in a humidified atmosphere, at 37° C. with 5% CO2. CT26 and DA-3 cells were maintained in Dulbecco's modified Eagle's medium (Biological Industries, Beit-Haemek, Israel), supplemented with 10% FCS, 2 mM L-glutamine, 100 U ml^−1 penicillin, 100 μg ml^−1 streptomycin, 1 mM sodium pyruvate and 1:100 dilution of nonessential amino acids (all purchased from Biological Industries, Israel).
as §2, §3

[3] = tested on: CT26 murine colon carcinoma; assay: Cytotoxicity assay (MTS, CellTiter 96) in CT26 cells; assay type: cell-based
Protocol: as §1
as §4, with “Israel). […]” for “Israel).”
Inhibition of cell proliferation was determined by the CellTiter 96 Aqueous Non-Radioactive Cell Proliferation Assay (Promega, Madison, Wis., USA). […] Soluble MTS formazan product at wavelength 490 nm was measured with the CERES 900 HDi ELISA reader (Bio-Tek Instruments, Highland Park, Vt., USA). […] Cytotoxicity (%) was calculated in the following way: [(absorbance of control cells−absorbance of drug-treated cells)/absorbance of control cells]×100.

[4] = tested on: MCF7 human breast adenocarcinoma; assay: Cytotoxicity assay (MTS, CellTiter 96) in MCF7 cells; assay type: cell-based
Text: as §1
(§5) MCF7, MIA PaCa-2 and BCL1 cells were maintained in RPMI-1640 medium (Biological Industries, Israel) supplemented with 10% FCS, 2 mM L-glutamine, 100 U ml^−1 penicillin and 100 μg ml^−1 streptomycin.
as §2, §3

[5] = tested on: BCL1 murine B cell leukemia; assay: Cytotoxicity assay (MTS, CellTiter 96) in freshly extracted BCL1 cells; conditions: for Interaction of MJ with drug (cytotoxicity vs expected additivity): BCL1; for Cooperative effect of combination of MJ and chemotherapeutic drug: BCL1 cells, drug combined with fixed concentration of MJ (0.1 mM), cooperative = pV<0.05 vs expected additivity; for IC50: Mus musculus
Text: as §1, §5
BCL1 cells, which are unable to grow continuously in culture, were maintained in BALB/c mice. Blood was taken from the tail vein of BCL1-bearing mice on day 23-28 post inoculation, and depleted of red blood cells (RBC) using RBC lysis buffer (Sigma-Aldrich). The purified leukemic cells were used for in vitro and in vivo experiments.
as §2, §3

BCL1 leukemia = assay: Survival of BCL1 leukemia-bearing mice; assay type: in vivo, BALB/c mice; conditions: MJ 60 mg/kg i.v. or adriamycin 4 mg/kg i.p. alone
Protocol: Balb/c male mice (7-8 weeks old) were obtained from the breeding colony of Tel-Aviv University, Israel. Animal care and experimentation were carried out in accordance with Tel-Aviv University guidelines and approved by the institutional animal use and care committee. Mice were kept in cages under standard food and housing conditions during the experiments.
(§6) 2×10^4 BCL1 cells, freshly extracted from BCL1 leukemia bearing BALB/c mice, were inoculated intraperitoneally (i.p.) into mice in 100 μl PBS to produce tumor growth. Methyl jasmonate at 60 mg/kg was administered to animals 5 times a week, daily, for 4 weeks, starting one day after cell inoculation. […] MJ was dissolved in a lipid formulation, Lipofundin (B. Braun Melsungen, Melsungen, Germany). The adriamycin was given to mice twice, on days 7 and 14, at 4 mg/kg, i.p. Control mice were treated with the vehicle alone. The survival of mice was monitored daily.
Statistical significance in in vitro experiments was assessed using the two-tailed Student's t-test. P<0.05 was considered statistically significant. The survival curves (Kaplan-Meier test) and statistical analysis (Mantel-Cox test) were carried out using Statistical software.
Since adriamycin is used for treatment of leukemia, it was chosen for an experiment assessing a combination with MJ in vivo. […]

[6] = tested on: MIA PaCa-2 human pancreatic carcinoma; assay: Cytotoxicity assay (MTS, CellTiter 96) in MIA PaCa-2 cells; conditions: for IC50: Homo sapiens; for Cooperative effect of combination of MJ and chemotherapeutic drug: MIA PaCA-2 cells, drug combined with fixed concentration of MJ, cooperative = pV<0.05 vs expected additivity
Text: as §1, §5, §2, §3

[7] = tested on: TRAMP C1 murine prostate adenocarcinoma; assay: Cytotoxicity assay (MTS, CellTiter 96) in TRAMP C1 cells; assay type: cell-based; conditions: for Cooperative effect of combination of MJ and chemotherapeutic drug / IC50: TRAMP C1 cells; for Cooperative effect of combination of MJ and chemotherapeutic drug: drug combined with fixed concentration of MJ, cooperative = pV<0.05 vs expected additivity; for IC50: Mus musculus
Protocol: as §1
TRAMP C1 cells were grown in Dulbecco's modified Eagle's medium supplemented with 10% FCS, 2 mM L-glutamine, 100 U ml^−1 penicillin, 100 μg ml^−1 streptomycin, 1 mM sodium pyruvate, 1:100 dilution of nonessential amino acids, 5 μg/ml bovine insulin and 10 nM dehydroisoandrosterone.
as §2, §3

[8] = mouse, in vivo
Protocol: as §6

[9] = drug at other concentrations + 0.1 mM MJ

Question: With `O=CC[C@@H](O)[C@H](O)[C@H](O)CO` [2DG, 2-Deoxy-D-glucose] as the molecule, how does the “Effect of 2DG on cytotoxicity of MJ” value ([1]; D122, 2DG 0.5 mM, each MJ concentration, pV<0.05) read?
Answer: The value was “significantly enhanced”.

Question: And the “Effect of 2DG on cytotoxicity of MJ” value ([2]; DA-3, 2DG 0.5 mM with MJ)?
Answer: The value was “No cooperative effect”.

Question: And the “Effect of 2DG on cytotoxicity of MJ” value ([3]; CT26, 2DG 0.5 mM, each MJ concentration, pV<0.05)?
Answer: The value was “significantly enhanced”.

Question: And the “Effect of 2DG on cytotoxicity of MJ” value ([4]; MCF7, 2DG 0.5 mM, other MJ concentrations)?
Answer: The value was “additive”.

Question: Which results are given for `COc1cccc2c1C(=O)c1c(O)c3c(c(O)c1C2=O)C[C@@](O)(C(=O)CO)C[C@@H]3O[C@H]1C[C@H](N)[C@H](O)[C@H](C)O1` [Adriamycin]?
Answer: Interaction of MJ with drug (cytotoxicity vs expected additivity) ([5]; adriamycin 10 and 25 ng/ml + 0.1 mM MJ): cooperation; Interaction of MJ with drug (cytotoxicity vs expected additivity) [5, 9]: additive effect; Cooperative effect of combination of MJ and chemotherapeutic drug [5]: +; Survival of BCL1 leukemia-bearing mice, single agent (BCL1 leukemia): did not induce increased survival

Question: Which IC50 ([6]; MIA PaCa-2, read-out: IC50 of BCNU by itself) does the source give for `O=NN(CCCl)C(=O)NCCCl` [BCNU, 1,3-bis{2-Chloroethyl}-1-nitroso-urea] here?
Answer: The IC50 was greater than 25 µg/mL.

Question: What about the IC50 ([6]; MIA PaCa-2, read-out: IC50 of BCNU in the combination with MJ) of the same molecule?
Answer: The IC50 was less than 1 µg/mL.

Question: What about the “Cooperative effect of combination of MJ and chemotherapeutic drug” value (“Cooperative effect” below) [6] of the same molecule?
Answer: Its value is “+”.

Question: What about the “Interaction of MJ with drug (cytotoxicity vs expected additivity)” value ([6]; MIA PaCa-2, BCNU at all concentrations tested (1-25 μg/ml) + 1 mM MJ) of the same molecule?
Answer: The value was “strong cooperative effects”.

Question: And the “Interaction of MJ with drug (cytotoxicity vs expected additivity)” value ([5]; BCNU 2.5 and 5 μg/ml + 0.1 mM MJ, pV<0.05)?
Answer: Its value is “cooperation”.

Question: What about the “Interaction of MJ with drug (cytotoxicity vs expected additivity)” value [5, 9] of the same molecule?
Answer: The value was “additive effect”.

Question: And the “Cooperative effect” value [5]?
Answer: The value was “+”.

Question: Which “Cooperative effect” value [7] does the source give for `N.N.[Cl][Pt][Cl]` [Cisplatin, cis Diammineplatinum (II) dichloride] here?
Answer: Its value is “+”.

Question: And the “Cooperative effect” value [6]?
Answer: The value was “+”.

Question: Which IC50 ([1]; 24 h, read-out: IC50 of MJ) does the source give for `CC/C=C\CC1C(=O)CCC1CC(=O)OC` (stereo not shown) [MJ, methyl 3-oxo-2-(2-pentenyl)cyclopentaneacetic acid] here?
Answer: The IC50 was 1.22 ± 0.06 mM.

Question: What about the IC50 ([2]; DA-3, 24 h, read-out: IC50 of MJ) of the same molecule?
Answer: The IC50 was 1.91 ± 0.08 mM.

Question: What about the IC50 ([3]; Mus musculus, CT26 cells, 24 h exposure) of the same molecule?
Answer: The IC50 was 2.59 ± 0.12 mM.

Question: What about the IC50 ([7]; 24 h exposure, read-out: IC50 of MJ) of the same molecule?
Answer: The IC50 was 2.94 ± 0.13 mM.

Question: What about the IC50 ([6]; MIA PaCa-2, 24 h, read-out: IC50 of MJ) of the same molecule?
Answer: The IC50 was 1.46 ± 0.13 mM.

Question: And the IC50 ([4]; Homo sapiens, MCF7 cells, 24 h exposure)?
Answer: The IC50 was 1.49 ± 0.06 mM.

Question: What about the IC50 ([5]; BCL1, 24 h, read-out: IC50 of MJ) of the same molecule?
Answer: The IC50 was 0.56 ± 0.09 mM.

Question: What about the IC50 ([5]; BCL1, read-out: IC50 of MJ) of the same molecule?
Answer: Its IC50 is 0.56 mM.

Question: And the “Tolerability of MJ dose” value [8]?
Answer: Its value is “well tolerated”.

Question: What does the source list for `CC(=O)O[C@H]1C(=O)[C@@]2(C)[C@H]([C@H](OC(=O)c3ccccc3)[C@]3(O)C[C@H](OC(=O)[C@H](O)[C@@H](NC(=O)c4ccccc4)c4ccccc4)C(C)=C1C3(C)C)[C@]1(OC(C)=O)CO[C@@H]1C[C@@H]2O` [Taxol]?
Answer: Cooperative effect of combination of MJ and chemotherapeutic drug ([1]; D122 cells, drug combined with fixed concentration of MJ, cooperative = pV<0.05 vs expected additivity): +; IC50 ([1]; read-out: IC50 of taxol alone): 8.2 µg/mL; IC50 ([1]; read-out: IC50 of taxol in the presence of MJ): < 1 µg/mL; Cooperative effect of combination of MJ and chemotherapeutic drug ([2]; DA-3 cells, drug combined with fixed concentration of MJ, cooperative = pV<0.05 vs expected additivity): +; IC50 ([2]; DA-3, read-out: IC50 of taxol alone): 9 µg/mL; IC50 ([2]; DA-3, read-out: IC50 of taxol in combination with MJ): 2.5 µg/mL; IC50 ([7]; drug alone, read-out: IC 50 of taxol): 38 µg/mL; IC50 ([7]; with 1 mM MJ, read-out: IC 50 of taxol by combined treatment with MJ): 2 µg/mL; Combined effect of taxol with MJ vs expected additivity ([7]; TRAMP C1, taxol at all concentrations tested (1-50 μg/ml) + 1 mM MJ): significantly higher than the expected additivity; Cooperative effect of combination of MJ and chemotherapeutic drug [7]: +; Interaction of MJ with drug (cytotoxicity vs expected additivity) ([4]; MCF7, taxol 2.5 μg/ml + 1 mM MJ): enhances the cytotoxic capability; Interaction of MJ with drug (cytotoxicity vs expected additivity) ([4]; MCF7, taxol at other concentrations + 1 mM MJ): additive; Cooperative effect of combination of MJ and chemotherapeutic drug ([4]; MCF7 cells, drug combined with fixed concentration of MJ, cooperative = pV<0.05 vs expected additivity): +; Interaction of MJ with drug (cytotoxicity vs expected additivity) ([5]; drug + 0.1 mM MJ): No cooperative effect

From US20100003346A1, “COMBINATION METHODS OF TREATING CANCER” (priority 2006, published 2010)
